Results: patent US11077126B2 (priority 2017, dated 2021)
Read-outs that look alike come from different tables or passages of the source.

Test system: mouse bone marrow polychromatic erythrocytes
Conditions: mouse, in vivo; for Number of Micronuclei / P/N / P/N Ratio: po
Experimental: It is the object to test the mutagenic potential of drugs on mammalian somatic cells, and provide a basis for clinical drug use.
An appropriate amount of 0.5% sodium carboxymethyl cellulose solution was added to prepare a suspension, and the suspension was stored in a refrigerator at 4° C. The negative control was an equal amount of 0.5% sodium carboxymethylcellulose solution. The positive control was prepared as follows: an appropriate amount of cyclophosphamide used for injection was weighed, and was dissolved in normal saline at the time of use to prepare 60 mg/kg of solution.
6 mice per group. The doses, number of administrations, and bone marrow sampling time are selected in the pre-test.
The dose is reduced by ½ LD50 as the standard, and the number of administrations is one time. According to the pre-test results, the bone marrow sampling time is to sample 24 hours after administration.
At least three dose groups, respectively: 2,000 mg/kg, 1,000 mg/kg, 500 mg/kg
The number of administrations: one-time oral administration.
Oral (Intragastric) administration.
2.4.3 Bone marrow sampling time: 24 hours after administration.
The mice were sacrificed by cervical dislocation. Then the sternums were taken to remove the muscles thereon and the attachments were wiped with a gauze. Direct smear of bone marrow was used: the sternums were cut to expose the medullary cavity, and bone marrow was extruded and mixed well with a drop of calf serum on a slide beforehand as a push piece. After being dried, the slide was fixed in methanol for 10 minutes, and then after it was dried, it was then subjected to Giemsa staining. Each mouse was microscopically examined for about 1,000 polychromatic erythrocytes with intact contours of erythrocytes, and the frequency of occurrence of micronuclei and the ratio of polychromatic erythrocytes to erythrocytes were counted.

Carrimycin
conclusion of micronucleus test: chromosomal cleavage: is not a chromosomal cleavage agent
conclusion of micronucleus test: effect on the bone marrow: no inhibitory effect on the bone marrow
micronucleus rate of polychromatic erythrocytes compared with the negative control group: do not have significant increase
Number of Micronuclei (500 mg/kg): 18
P/N (500 mg/kg): 0.34
P/N Ratio (500 mg/kg): 0.34
Number of Micronuclei (1000 mg/kg): 16
P/N (1000 mg/kg): 0.33
P/N Ratio (1000 mg/kg): 0.33
Number of Micronuclei (2000 mg/kg): 21
P/N (2000 mg/kg): 0.38
P/N Ratio (2000 mg/kg): 0.38
